In ChEMBL document CHEMBL4190336, “Discovery of a Novel Series of 7-Azaindole Scaffold Derivatives as PI3K Inhibitors with Potent Activity” (ACS Med Chem Lett, 2017):

Tests used:
[1] = target: Phosphatidylinositol 4,5-bisphosphate 3-kinase catalytic subunit gamma isoform (Homo sapiens, UniProt P48736)
Description: Inhibition of recombinant full length His-tagged human PI3K p110gamma expressed in baculovirus expression system using PIP2/PS as substrate after 1 hr by ADP-Glo luminescence assay

[2] = target: PI3-kinase p110-alpha/p85-alpha (Homo sapiens, UniProt P42336); assay: Inhibition of recombinant full length N-terminal His-tagged human PI3K p110alpha/p85alpha expressed in baculovirus expression system using PIP2/PS as substrate after 1 hr by ADP-Glo luminescence assay
[3] = target: Phosphatidylinositol 4,5-bisphosphate 3-kinase catalytic subunit beta isoform (Homo sapiens, UniProt P42338); assay: Inhibition of recombinant human PI3K p110beta using PIP2/PS as substrate after 1 hr by ADP-Glo luminescence assay
[4] = target: PI3-kinase p110-delta/p85-alpha (Homo sapiens, UniProt O00329); assay: Inhibition of recombinant human full length His-tagged PI3K p110delta/p85alpha expressed in baculovirus expression system using PIP2/PS as substrate after 1 hr by ADP-Glo luminescence assay
NCI-H460 = assay: Growth inhibition of human NCI-H460 cells after 72 hrs by SRB assay; format: functional; details: NCI-H460, 72 h
MCF7 = assay: Growth inhibition of human MCF7 cells after 72 hrs by SRB assay; format: functional; details: MCF7, 72 h
T47D = assay: Growth inhibition of human T47D cells after 72 hrs by SRB assay; format: functional
U-87 MG = assay: Growth inhibition of human U87MG cells after 72 hrs by SRB assay; format: functional, U-87MG ATCC
KARPAS-422 = assay: Growth inhibition of human KARPAS422 cells by CCK8 assay; format: functional
Pfeiffer = assay: Growth inhibition of human Pfeiffer cells by CCK8 assay; format: functional

Chain of PI3-kinase p110-alpha/p85-alpha (P27986 whole entry, canonical isoform): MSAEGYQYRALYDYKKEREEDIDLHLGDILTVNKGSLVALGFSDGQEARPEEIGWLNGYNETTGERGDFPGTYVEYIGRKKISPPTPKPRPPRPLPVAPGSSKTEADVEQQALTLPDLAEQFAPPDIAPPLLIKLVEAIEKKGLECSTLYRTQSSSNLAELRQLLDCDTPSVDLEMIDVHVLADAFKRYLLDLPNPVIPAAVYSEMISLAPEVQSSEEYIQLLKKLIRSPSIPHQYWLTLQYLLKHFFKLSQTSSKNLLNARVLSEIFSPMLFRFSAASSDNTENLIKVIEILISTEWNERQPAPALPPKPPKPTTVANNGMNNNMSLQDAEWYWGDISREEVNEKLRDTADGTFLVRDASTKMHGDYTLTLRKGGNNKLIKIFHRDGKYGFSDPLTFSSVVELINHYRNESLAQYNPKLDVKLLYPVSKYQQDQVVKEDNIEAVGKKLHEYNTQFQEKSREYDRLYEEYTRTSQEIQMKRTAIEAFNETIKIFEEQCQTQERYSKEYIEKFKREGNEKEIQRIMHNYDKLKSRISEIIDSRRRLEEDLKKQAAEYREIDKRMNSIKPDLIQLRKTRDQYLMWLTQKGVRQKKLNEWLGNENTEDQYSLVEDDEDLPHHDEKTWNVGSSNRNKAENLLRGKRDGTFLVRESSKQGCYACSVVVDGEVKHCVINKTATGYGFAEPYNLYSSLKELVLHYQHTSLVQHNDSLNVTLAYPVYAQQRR
Chain of PI3-kinase p110-alpha/p85-alpha (P42336 whole entry, canonical isoform): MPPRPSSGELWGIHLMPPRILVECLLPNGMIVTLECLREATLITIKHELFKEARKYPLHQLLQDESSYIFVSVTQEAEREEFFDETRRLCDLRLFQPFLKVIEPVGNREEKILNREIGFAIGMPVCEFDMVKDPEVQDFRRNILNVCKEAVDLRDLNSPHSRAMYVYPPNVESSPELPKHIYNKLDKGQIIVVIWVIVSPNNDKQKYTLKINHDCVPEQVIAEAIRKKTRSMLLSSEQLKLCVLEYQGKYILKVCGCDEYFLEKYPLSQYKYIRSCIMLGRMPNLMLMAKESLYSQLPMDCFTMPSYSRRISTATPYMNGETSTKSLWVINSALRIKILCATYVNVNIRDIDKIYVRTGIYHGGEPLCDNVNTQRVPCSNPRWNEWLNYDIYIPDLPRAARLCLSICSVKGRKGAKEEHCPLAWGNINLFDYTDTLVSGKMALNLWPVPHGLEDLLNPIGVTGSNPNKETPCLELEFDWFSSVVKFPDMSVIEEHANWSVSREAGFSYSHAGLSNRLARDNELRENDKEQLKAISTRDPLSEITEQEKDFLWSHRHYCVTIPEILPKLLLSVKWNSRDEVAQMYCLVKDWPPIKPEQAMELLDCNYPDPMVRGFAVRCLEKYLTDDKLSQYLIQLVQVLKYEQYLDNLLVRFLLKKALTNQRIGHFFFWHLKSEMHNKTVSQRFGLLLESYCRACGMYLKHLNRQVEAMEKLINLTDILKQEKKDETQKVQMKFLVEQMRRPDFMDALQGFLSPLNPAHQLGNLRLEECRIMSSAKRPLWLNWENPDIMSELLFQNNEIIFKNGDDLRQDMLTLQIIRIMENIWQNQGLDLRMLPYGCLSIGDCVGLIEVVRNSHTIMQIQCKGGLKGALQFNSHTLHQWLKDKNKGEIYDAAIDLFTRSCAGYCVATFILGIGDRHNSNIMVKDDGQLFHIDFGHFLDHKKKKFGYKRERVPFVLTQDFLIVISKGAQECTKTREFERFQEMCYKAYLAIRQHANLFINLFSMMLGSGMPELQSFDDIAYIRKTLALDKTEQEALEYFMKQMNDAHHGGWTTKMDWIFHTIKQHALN
Chain of PI3-kinase p110-delta/p85-alpha (P27986 whole entry): as the sequence (P27986 whole entry, canonical isoform) above
Chain of PI3-kinase p110-delta/p85-alpha (O00329 whole entry): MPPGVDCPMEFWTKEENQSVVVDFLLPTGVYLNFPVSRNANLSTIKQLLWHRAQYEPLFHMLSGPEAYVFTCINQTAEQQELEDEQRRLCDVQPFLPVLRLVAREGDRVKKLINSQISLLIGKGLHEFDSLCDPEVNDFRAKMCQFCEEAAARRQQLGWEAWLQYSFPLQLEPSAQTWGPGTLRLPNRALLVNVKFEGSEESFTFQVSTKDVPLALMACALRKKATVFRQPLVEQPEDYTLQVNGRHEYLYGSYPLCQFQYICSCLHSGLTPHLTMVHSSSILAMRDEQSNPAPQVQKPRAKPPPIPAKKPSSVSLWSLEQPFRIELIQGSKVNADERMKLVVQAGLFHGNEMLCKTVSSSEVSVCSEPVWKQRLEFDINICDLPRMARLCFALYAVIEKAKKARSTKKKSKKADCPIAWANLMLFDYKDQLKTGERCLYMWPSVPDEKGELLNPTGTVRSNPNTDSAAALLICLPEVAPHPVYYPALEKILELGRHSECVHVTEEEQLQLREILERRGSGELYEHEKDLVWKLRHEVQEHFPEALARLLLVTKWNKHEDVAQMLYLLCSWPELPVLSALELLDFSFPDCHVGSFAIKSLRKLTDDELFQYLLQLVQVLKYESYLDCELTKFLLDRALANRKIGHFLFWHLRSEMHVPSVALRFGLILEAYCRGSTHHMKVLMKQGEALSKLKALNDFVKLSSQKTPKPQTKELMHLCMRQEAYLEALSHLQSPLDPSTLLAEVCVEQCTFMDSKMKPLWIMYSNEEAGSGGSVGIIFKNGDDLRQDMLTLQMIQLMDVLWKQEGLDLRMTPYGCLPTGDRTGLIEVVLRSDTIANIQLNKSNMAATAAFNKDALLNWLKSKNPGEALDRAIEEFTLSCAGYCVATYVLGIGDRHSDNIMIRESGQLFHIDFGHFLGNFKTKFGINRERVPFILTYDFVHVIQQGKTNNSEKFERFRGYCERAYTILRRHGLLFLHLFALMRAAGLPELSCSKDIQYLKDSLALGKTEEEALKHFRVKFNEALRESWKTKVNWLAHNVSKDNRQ
Chain of Phosphatidylinositol 4,5-bisphosphate 3-kinase catalytic subunit gamma isoform (P48736 whole entry, canonical isoform): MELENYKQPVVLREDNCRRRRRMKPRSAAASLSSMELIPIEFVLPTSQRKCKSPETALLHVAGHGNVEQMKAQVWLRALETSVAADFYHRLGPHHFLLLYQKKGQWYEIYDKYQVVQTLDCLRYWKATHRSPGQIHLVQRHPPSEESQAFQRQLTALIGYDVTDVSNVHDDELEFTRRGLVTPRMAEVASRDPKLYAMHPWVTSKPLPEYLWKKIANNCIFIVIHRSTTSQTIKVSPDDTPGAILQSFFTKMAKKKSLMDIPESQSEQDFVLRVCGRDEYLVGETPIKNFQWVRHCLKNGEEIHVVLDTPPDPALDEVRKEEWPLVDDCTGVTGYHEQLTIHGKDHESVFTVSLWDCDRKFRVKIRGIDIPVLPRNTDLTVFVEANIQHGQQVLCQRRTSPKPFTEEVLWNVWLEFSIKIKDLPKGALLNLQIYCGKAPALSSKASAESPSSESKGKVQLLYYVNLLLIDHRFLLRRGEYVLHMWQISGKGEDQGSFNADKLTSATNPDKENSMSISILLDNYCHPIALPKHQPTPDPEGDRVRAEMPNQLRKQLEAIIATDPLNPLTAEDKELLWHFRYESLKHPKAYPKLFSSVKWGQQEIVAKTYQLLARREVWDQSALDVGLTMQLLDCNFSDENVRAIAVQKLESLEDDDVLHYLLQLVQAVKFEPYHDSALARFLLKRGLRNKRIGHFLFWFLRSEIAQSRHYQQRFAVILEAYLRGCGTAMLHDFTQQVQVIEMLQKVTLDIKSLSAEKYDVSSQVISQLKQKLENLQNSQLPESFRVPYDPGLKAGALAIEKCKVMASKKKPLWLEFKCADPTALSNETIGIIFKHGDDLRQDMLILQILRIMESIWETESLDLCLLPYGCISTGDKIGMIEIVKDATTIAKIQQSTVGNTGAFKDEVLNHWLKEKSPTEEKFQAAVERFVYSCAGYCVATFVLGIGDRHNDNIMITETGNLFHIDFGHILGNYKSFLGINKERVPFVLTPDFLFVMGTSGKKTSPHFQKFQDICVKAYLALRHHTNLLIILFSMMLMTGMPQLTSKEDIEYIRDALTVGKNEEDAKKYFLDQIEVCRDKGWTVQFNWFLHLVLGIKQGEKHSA
Chain of Phosphatidylinositol 4,5-bisphosphate 3-kinase catalytic subunit beta isoform (P42338 whole entry, canonical isoform): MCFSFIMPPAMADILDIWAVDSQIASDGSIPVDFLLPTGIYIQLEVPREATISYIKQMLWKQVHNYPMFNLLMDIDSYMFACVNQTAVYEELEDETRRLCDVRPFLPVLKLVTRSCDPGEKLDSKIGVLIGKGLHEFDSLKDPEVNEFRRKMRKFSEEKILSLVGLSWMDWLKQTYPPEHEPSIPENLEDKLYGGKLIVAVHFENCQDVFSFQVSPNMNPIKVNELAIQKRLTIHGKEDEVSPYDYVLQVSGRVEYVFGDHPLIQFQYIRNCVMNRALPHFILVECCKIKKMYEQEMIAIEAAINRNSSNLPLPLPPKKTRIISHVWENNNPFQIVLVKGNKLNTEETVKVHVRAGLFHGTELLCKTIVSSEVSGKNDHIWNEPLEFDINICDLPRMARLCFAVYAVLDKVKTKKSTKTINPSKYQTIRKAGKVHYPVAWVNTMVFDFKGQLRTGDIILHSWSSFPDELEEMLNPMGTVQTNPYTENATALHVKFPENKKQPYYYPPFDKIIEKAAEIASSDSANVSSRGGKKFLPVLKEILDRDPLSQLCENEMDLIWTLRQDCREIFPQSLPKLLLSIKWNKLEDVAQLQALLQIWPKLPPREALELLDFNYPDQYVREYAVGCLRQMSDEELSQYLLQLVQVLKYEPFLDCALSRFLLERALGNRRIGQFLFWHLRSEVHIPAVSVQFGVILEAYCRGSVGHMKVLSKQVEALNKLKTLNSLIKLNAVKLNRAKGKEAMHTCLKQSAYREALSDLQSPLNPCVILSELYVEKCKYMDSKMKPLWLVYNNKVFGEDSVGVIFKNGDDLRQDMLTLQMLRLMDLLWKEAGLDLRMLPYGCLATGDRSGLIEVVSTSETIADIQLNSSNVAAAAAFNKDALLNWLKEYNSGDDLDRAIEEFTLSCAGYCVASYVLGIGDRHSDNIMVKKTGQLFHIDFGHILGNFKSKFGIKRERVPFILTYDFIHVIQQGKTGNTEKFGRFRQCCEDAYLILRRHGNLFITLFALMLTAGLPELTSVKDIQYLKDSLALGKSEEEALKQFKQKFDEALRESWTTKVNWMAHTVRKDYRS

| SMILES | IC50 [1] [nM] | IC50 [2] [nM] | IC50 [3] [nM] | IC50 [4] [nM] | GI50 (NCI-H460) [nM] | GI50 (MCF7) [nM] | GI50 (T47D) [nM] | GI50 (U-87 MG) [nM] | GI50 (KARPAS-422) [nM] | GI50 (Pfeiffer) [nM] |
| --- | --- | --- | --- | --- | --- | --- | --- | --- | --- | --- |
| Cc1ncc(-c2ccc(N)nc2)cc1NS(=O)(=O)c1ccccc1 | 381 |  |  |  |  |  |  |  |  |  |
| O=C(Nc1ccc(-c2cnc(Cl)c(NS(=O)(=O)c3ccccc3)c2)cn1)C1CC1 | 445 |  |  |  |  |  |  |  |  |  |
| Nc1ccc(-c2cncc(NS(=O)(=O)c3ccccc3)c2)cn1 | 1590 |  |  |  |  |  |  |  |  |  |
| COc1ncc(-c2ccc(N)nc2)cc1NS(=O)(=O)c1ccccc1 | 2060 |  |  |  |  |  |  |  |  |  |
| CN(C)C(=O)Nc1ccc(-c2cnc(Cl)c(NS(=O)(=O)c3ccccc3)c2)cn1 | 68 |  |  |  |  |  |  |  |  |  |
| CS(=O)(=O)Nc1ccc(-c2cnc(Cl)c(NS(=O)(=O)c3ccccc3)c2)cn1 | 4750 |  |  |  |  |  |  |  |  |  |
| Nc1ccc(-c2cnc(N)c(NS(=O)(=O)c3ccccc3)c2)cn1 | 2970 |  |  |  |  |  |  |  |  |  |
| CCNc1ccc(-c2cnc(Cl)c(NS(=O)(=O)c3ccccc3)c2)cn1 | 1490 |  |  |  |  |  |  |  |  |  |
| Cn1c(=O)n(-c2ccc(C(C)(C)C#N)cc2)c2c3cc(-c4cnc5ccccc5c4)ccc3ncc21 [DACTOLISIB] |  |  |  |  | 610 | 60 | 300 | 280 |  |  |
| CC[C@H](Nc1ncnc2[nH]cnc12)c1nc2cccc(F)c2c(=O)n1-c1ccccc1 [IDELALISIB] |  |  |  |  |  |  |  |  | 680 | 740 |

More lines, main results first:

| IC50 [1] [nM] | IC50 [2] [nM] | IC50 [3] [nM] | IC50 [4] [nM] | GI50 (NCI-H460) [nM] | GI50 (MCF7) [nM] | GI50 (T47D) [nM] | GI50 (U-87 MG) [nM] | GI50 (KARPAS-422) [nM] | SMILES | GI50 (Pfeiffer) [nM] |
| --- | --- | --- | --- | --- | --- | --- | --- | --- | --- | --- |
| 268 |  |  |  |  |  |  |  |  | O=S(=O)(Nc1cc(-c2cnc3[nH]c(-c4ccccc4)cc3c2)cnc1Cl)c1ccccc1 |  |
| 37 | 51 | 29 | 1 | 7610 | 7400 | 4400 | 8940 | 1090 | O=S(=O)(Nc1cc(-c2cnc3[nH]ncc3c2)cnc1Cl)c1ccccc1 | 1160 |
| 15 | 2 | 39 | 1 | > 10000 | > 10000 | 7720 | > 10000 | 1830 | O=S(=O)(Nc1cc(-c2cnc3[nH]cc(-c4ccccc4)c3c2)cnc1Cl)c1ccccc1 | 1520 |
| 0.7 | 1 | 2 | 0.4 | 6190 | 2910 | 1300 | > 10000 | 370 | O=S(=O)(Nc1cc(-c2cnc3[nH]cc(-c4ccncc4)c3c2)cnc1Cl)c1ccc(F)cc1 | 410 |
| 155 |  |  |  |  |  |  |  |  | CCc1cc2cc(-c3cnc(Cl)c(NS(=O)(=O)c4ccccc4)c3)cnc2[nH]1 |  |
| 63 |  |  |  |  |  |  |  |  | Cc1cc2cc(-c3cnc(Cl)c(NS(=O)(=O)c4ccccc4)c3)cnc2[nH]1 |  |
| 375 |  |  |  |  |  |  |  |  | Nc1ccc(-c2cnc(Cl)c(NS(=O)(=O)c3ccccc3)c2)cn1 |  |
| 7 | 1 | 4 | 0.7 | 2500 | 690 | 520 | 3120 | 170 | O=S(=O)(Nc1cc(-c2cnc3[nH]nc(-c4ccncc4)c3c2)cnc1Cl)c1ccccc1 | 150 |
| 0.7 | 1 | 3 | 0.5 | > 10000 | 2500 | 1790 | 7130 | 350 | O=S(=O)(Nc1cc(-c2cnc3[nH]cc(-c4ccncc4)c3c2)cnc1Cl)c1ccccc1F | 290 |
| 97 | 35 | 35 | 1 | > 10000 | > 10000 | > 10000 | > 10000 | 6710 | O=S(=O)(Nc1cc(-c2cnc3[nH]ccc3c2)cnc1Cl)c1ccccc1 | 5500 |
| 17 | 2 | 6 | 1 | 8650 | 7370 | 4190 | > 10000 | 1230 | O=S(=O)(Nc1cc(-c2cnc3[nH]nc(-c4ccccc4)c3c2)cnc1Cl)c1ccccc1 | 1300 |
| 0.5 | 1 | 2 | 0.6 | 3900 | 2140 | 1500 | 8950 | 120 | O=S(=O)(Nc1cc(-c2cnc3[nH]cc(-c4ccncc4)c3c2)cnc1Cl)c1ccccc1 | 100 |
| 420 |  |  |  |  |  |  |  |  | CC(=O)Nc1ccc(-c2cnc(Cl)c(NS(=O)(=O)c3ccccc3)c2)cn1 |  |
